Assay results reported in PubChem BioAssay (NCI).
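Each compound was tested at five concentrations against cells in 96-well plates for 48 hours. Definition used: TGI = concentration required for complete inhibition of growth.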

What was measured:
Test in all cases: growth of human tumour cells (NCI), 48 h
K-562 leukemia = system: K-562 leukemia
OVCAR-5 ovarian = system: OVCAR-5 ovarian
SR leukemia = system: SR leukemia
RPMI-8226 leukemia = system: RPMI-8226 leukemia
SN12C renal = system: SN12C renal
HL-60(TB) leukemia = system: HL-60(TB) leukemia
MDA-MB-435 = system: MDA-MB-435
COLO 205 colon = system: COLO 205 colon
SNB-19 CNS = system: SNB-19 CNS
HCT-15 colon = system: HCT-15 colon
NCI-H226 lung = system: NCI-H226 lung
NCI-H522 lung = system: NCI-H522 lung
SW-620 colon = system: SW-620 colon
A498 renal = system: A498 renal
SK-MEL-2 melanoma = system: SK-MEL-2 melanoma
NCI-H23 lung = system: NCI-H23 lung
786-0 renal = system: 786-0 renal
SF-295 CNS = system: SF-295 CNS
IGROV1 ovarian = system: IGROV1 ovarian
OVCAR-3 ovarian = system: OVCAR-3 ovarian
MCF7 breast = system: MCF7 breast
MOLT-4 leukemia = system: MOLT-4 leukemia
UACC-257 melanoma = system: UACC-257 melanoma
UO-31 renal = system: UO-31 renal
DU-145 prostate = system: DU-145 prostate
HS 578T breast = system: HS 578T breast
HOP-92 NSCLC = system: HOP-92 NSCLC
HOP-62 NSCLC = system: HOP-62 NSCLC
LOX IMVI melanoma = system: LOX IMVI melanoma
HCT-116 colon = system: HCT-116 colon
SK-OV-3 ovarian = system: SK-OV-3 ovarian
MDA-N = system: MDA-N
U251 CNS = system: U251 CNS
SF-539 CNS = system: SF-539 CNS
A549 NSCLC = system: A549 NSCLC
NCI/ADR-RES ovarian = system: NCI/ADR-RES ovarian
HT29 colon = system: HT29 colon
SF-268 CNS = system: SF-268 CNS
M14 melanoma = system: M14 melanoma
CAKI-1 renal = system: CAKI-1 renal
OVCAR-8 ovarian = system: OVCAR-8 ovarian
UACC-62 melanoma = system: UACC-62 melanoma
SK-MEL-5 melanoma = system: SK-MEL-5 melanoma
PC-3 prostate = system: PC-3 prostate
NCI-H460 lung = system: NCI-H460 lung
KM12 colon = system: KM12 colon
CCRF-CEM leukemia = system: CCRF-CEM leukemia
MDA-MB-231 breast = system: MDA-MB-231 breast
T-47D breast = system: T-47D breast
ACHN renal = system: ACHN renal
SK-MEL-28 melanoma = system: SK-MEL-28 melanoma
TK-10 renal = system: TK-10 renal
EKVX NSCLC = system: EKVX NSCLC
OVCAR-4 ovarian = system: OVCAR-4 ovarian
MALME-3M melanoma = system: MALME-3M melanoma
SNB-75 CNS = system: SNB-75 CNS
BT-549 breast = system: BT-549 breast
HCC-2998 colon = system: HCC-2998 colon
RXF 393 renal = system: RXF 393 renal

SMILES: C=C[C@H]1CC[C@H]2[C@@H]3CC=C4C[C@@H](OC5OCC(O)C(O)C5O)CC[C@]4(C)[C@H]3CC[C@]12C (stereo partly drawn)
- TGI (K-562 leukemia): > 100 µM
- TGI (OVCAR-5 ovarian): 28.1 µM
- TGI (SR leukemia): 33.7 µM
- TGI (RPMI-8226 leukemia): > 100 µM
- TGI (SN12C renal): 33.2 µM
- TGI (HL-60(TB) leukemia): > 100 µM
- TGI (MDA-MB-435): 47.8 µM
- TGI (COLO 205 colon): > 100 µM
- TGI (SNB-19 CNS): 65.9 µM
- TGI (HCT-15 colon): > 100 µM
- TGI (NCI-H226 lung): 34.6 µM
- TGI (NCI-H522 lung): 25.9 µM
- TGI (SW-620 colon): 40.2 µM
- TGI (A498 renal): 21 µM
- TGI (SK-MEL-2 melanoma): 34.5 µM
- TGI (NCI-H23 lung): 66.3 µM
- TGI (786-0 renal): 34.1 µM
- TGI (SF-295 CNS): 29.7 µM
- TGI (IGROV1 ovarian): 45.2 µM
- TGI (OVCAR-3 ovarian): 25.5 µM
- TGI (MCF7 breast): > 100 µM
- TGI (MOLT-4 leukemia): > 100 µM
- TGI (UACC-257 melanoma): > 100 µM
- TGI (UO-31 renal): 30 µM
- TGI (DU-145 prostate): > 100 µM
- TGI (HS 578T breast): 48.3 µM
- TGI (HOP-92 NSCLC): 16.8 µM
- TGI (HOP-62 NSCLC): > 100 µM
- TGI (LOX IMVI melanoma): 26.7 µM
- TGI (HCT-116 colon): 28.4 µM
- TGI (SK-OV-3 ovarian): 28.5 µM
- TGI (MDA-N): 65.8 µM
- TGI (U251 CNS): 30.5 µM
- TGI (SF-539 CNS): 28.6 µM
- TGI (A549 NSCLC): 27.5 µM
- TGI (NCI/ADR-RES ovarian): 38.1 µM
- TGI (HT29 colon): 61.3 µM
- TGI (SF-268 CNS): 36.2 µM
- TGI (M14 melanoma): 40.9 µM
- TGI (CAKI-1 renal): 23.8 µM
- TGI (OVCAR-8 ovarian): 33.5 µM
- TGI (UACC-62 melanoma): 54.3 µM
- TGI (SK-MEL-5 melanoma): > 100 µM
- TGI (PC-3 prostate): 37.7 µM
- TGI (NCI-H460 lung): 28.4 µM
- TGI (KM12 colon): 31.8 µM
- TGI (CCRF-CEM leukemia): > 100 µM
- TGI (MDA-MB-231 breast): 39.6 µM
- TGI (T-47D breast): 55.3 µM
- TGI (ACHN renal): 10.8 µM

SMILES: C=C1CC2(C[C@@H](c3ccccc3)O[C@@H](c3ccccc3)C2)OC1=O (stereo partly drawn)
- TGI (K-562 leukemia): 7.51 µM
- TGI (OVCAR-5 ovarian): 26.9 µM
- TGI (RPMI-8226 leukemia): 2.57 µM
- TGI (SN12C renal): 9.62 µM
- TGI (HL-60(TB) leukemia): 2.84 µM
- TGI (MDA-MB-435): 7.48 µM
- TGI (COLO 205 colon): 4.45 µM
- TGI (SK-MEL-28 melanoma): 3.83 µM
- TGI (SNB-19 CNS): 29.7 µM
- TGI (HCT-15 colon): 5.91 µM
- TGI (NCI-H226 lung): 32 µM
- TGI (NCI-H522 lung): 3.02 µM
- TGI (TK-10 renal): 3.89 µM
- TGI (SW-620 colon): 3.95 µM
- TGI (A498 renal): 23.5 µM
- TGI (SK-MEL-2 melanoma): 11.3 µM
- TGI (NCI-H23 lung): 7.72 µM
- TGI (786-0 renal): 5.63 µM
- TGI (SF-295 CNS): 26.8 µM
- TGI (IGROV1 ovarian): 8.26 µM
- TGI (OVCAR-3 ovarian): 6.07 µM
- TGI (MCF7 breast): 5.73 µM
- TGI (MOLT-4 leukemia): 5.61 µM
- TGI (UACC-257 melanoma): 10.8 µM
- TGI (UO-31 renal): 18.4 µM
- TGI (DU-145 prostate): 21.4 µM
- TGI (EKVX NSCLC): 25.7 µM
- TGI (HS 578T breast): 9.44 µM
- TGI (HOP-92 NSCLC): 9.81 µM
- TGI (HOP-62 NSCLC): 28.1 µM
- TGI (LOX IMVI melanoma): 2.84 µM
- TGI (HCT-116 colon): 3.71 µM
- TGI (SK-OV-3 ovarian): 27.8 µM
- TGI (MDA-N): 5.76 µM
- TGI (U251 CNS): 28.9 µM
- TGI (SF-539 CNS): 4.94 µM
- TGI (A549 NSCLC): 13.4 µM
- TGI (NCI/ADR-RES ovarian): 15.4 µM
- TGI (HT29 colon): 8.97 µM
- TGI (SF-268 CNS): 23.6 µM
- TGI (OVCAR-4 ovarian): 13.5 µM
- TGI (MALME-3M melanoma): 4.28 µM
- TGI (M14 melanoma): 3.34 µM
- TGI (SNB-75 CNS): 14.3 µM
- TGI (CAKI-1 renal): 4.53 µM
- TGI (BT-549 breast): 4.24 µM
- TGI (OVCAR-8 ovarian): 7.48 µM
- TGI (UACC-62 melanoma): 7.7 µM
- TGI (SK-MEL-5 melanoma): 8.83 µM
- TGI (PC-3 prostate): 14.5 µM
- TGI (NCI-H460 lung): 23.3 µM
- TGI (KM12 colon): 15.5 µM
- TGI (CCRF-CEM leukemia): 5.34 µM
- TGI (MDA-MB-231 breast): 4.58 µM
- TGI (HCC-2998 colon): 14.6 µM
- TGI (RXF 393 renal): 3.55 µM
- TGI (T-47D breast): 3.68 µM
- TGI (ACHN renal): 9.01 µM
